What was measured:
[1] = biological target: T1, ATP-binding cassette sub-family C member 4 (Homo sapiens, UniProt O15439); test: Inhibition of human MRP4 overexpressed in Sf9 cell membrane vesicles assessed as uptake of [3H]-estradiol-17beta-D-glucuronide in presence of ATP and GSH measured after 20 mins by membrane vesicle transport assay; assay type: ADME, cell-based
T1 sequence (O15439 whole entry): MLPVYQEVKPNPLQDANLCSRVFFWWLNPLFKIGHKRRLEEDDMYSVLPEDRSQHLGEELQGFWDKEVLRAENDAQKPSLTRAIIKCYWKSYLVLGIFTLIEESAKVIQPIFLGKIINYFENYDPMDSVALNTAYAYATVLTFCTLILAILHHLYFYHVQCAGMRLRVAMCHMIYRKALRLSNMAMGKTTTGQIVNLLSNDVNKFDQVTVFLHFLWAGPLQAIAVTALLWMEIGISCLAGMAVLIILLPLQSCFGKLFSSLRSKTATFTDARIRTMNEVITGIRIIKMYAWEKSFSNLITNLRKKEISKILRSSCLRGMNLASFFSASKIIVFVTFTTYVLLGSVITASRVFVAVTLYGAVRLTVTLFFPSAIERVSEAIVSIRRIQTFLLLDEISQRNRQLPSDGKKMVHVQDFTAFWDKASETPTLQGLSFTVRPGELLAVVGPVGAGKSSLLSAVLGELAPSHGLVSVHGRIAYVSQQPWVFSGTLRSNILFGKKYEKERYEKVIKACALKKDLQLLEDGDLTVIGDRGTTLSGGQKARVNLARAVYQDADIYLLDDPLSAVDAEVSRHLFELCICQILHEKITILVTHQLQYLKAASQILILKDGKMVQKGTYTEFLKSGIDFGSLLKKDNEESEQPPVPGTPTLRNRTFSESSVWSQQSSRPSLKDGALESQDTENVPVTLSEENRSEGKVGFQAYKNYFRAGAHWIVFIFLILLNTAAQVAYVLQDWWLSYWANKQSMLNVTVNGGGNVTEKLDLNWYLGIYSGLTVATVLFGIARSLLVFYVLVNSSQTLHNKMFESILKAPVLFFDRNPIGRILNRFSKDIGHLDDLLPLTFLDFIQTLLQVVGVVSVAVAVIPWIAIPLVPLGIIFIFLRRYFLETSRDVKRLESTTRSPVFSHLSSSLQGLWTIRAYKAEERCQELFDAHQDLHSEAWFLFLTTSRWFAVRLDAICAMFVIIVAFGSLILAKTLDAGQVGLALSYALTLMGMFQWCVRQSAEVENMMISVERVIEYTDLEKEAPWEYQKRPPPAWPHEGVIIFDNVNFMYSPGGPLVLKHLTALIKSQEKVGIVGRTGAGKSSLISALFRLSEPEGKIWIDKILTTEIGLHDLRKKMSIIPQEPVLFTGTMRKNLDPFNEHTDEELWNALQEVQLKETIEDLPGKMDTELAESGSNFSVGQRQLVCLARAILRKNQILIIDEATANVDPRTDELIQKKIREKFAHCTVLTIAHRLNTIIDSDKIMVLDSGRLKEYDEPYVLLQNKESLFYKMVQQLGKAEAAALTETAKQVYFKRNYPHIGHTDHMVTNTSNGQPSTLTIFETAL

[2] = Ratio of drug concentration at steady state in human at 20 to 60 mg, po QD after 24 hrs to IC50 for human BSEP overexpressed in Sf9 insect cells; assay type: ADME, organism-based; details: in vivo
[3] = biological target: Bile salt export pump (Homo sapiens, UniProt O95342); test: Inhibition of human BSEP overexpressed in Sf9 cell membrane vesicles assessed as uptake of [3H]-taurocholate in presence of ATP measured after 15 to 20 mins by membrane vesicle transport assay; assay type: ADME, cell-based
Sequence of Bile salt export pump (O95342 whole entry): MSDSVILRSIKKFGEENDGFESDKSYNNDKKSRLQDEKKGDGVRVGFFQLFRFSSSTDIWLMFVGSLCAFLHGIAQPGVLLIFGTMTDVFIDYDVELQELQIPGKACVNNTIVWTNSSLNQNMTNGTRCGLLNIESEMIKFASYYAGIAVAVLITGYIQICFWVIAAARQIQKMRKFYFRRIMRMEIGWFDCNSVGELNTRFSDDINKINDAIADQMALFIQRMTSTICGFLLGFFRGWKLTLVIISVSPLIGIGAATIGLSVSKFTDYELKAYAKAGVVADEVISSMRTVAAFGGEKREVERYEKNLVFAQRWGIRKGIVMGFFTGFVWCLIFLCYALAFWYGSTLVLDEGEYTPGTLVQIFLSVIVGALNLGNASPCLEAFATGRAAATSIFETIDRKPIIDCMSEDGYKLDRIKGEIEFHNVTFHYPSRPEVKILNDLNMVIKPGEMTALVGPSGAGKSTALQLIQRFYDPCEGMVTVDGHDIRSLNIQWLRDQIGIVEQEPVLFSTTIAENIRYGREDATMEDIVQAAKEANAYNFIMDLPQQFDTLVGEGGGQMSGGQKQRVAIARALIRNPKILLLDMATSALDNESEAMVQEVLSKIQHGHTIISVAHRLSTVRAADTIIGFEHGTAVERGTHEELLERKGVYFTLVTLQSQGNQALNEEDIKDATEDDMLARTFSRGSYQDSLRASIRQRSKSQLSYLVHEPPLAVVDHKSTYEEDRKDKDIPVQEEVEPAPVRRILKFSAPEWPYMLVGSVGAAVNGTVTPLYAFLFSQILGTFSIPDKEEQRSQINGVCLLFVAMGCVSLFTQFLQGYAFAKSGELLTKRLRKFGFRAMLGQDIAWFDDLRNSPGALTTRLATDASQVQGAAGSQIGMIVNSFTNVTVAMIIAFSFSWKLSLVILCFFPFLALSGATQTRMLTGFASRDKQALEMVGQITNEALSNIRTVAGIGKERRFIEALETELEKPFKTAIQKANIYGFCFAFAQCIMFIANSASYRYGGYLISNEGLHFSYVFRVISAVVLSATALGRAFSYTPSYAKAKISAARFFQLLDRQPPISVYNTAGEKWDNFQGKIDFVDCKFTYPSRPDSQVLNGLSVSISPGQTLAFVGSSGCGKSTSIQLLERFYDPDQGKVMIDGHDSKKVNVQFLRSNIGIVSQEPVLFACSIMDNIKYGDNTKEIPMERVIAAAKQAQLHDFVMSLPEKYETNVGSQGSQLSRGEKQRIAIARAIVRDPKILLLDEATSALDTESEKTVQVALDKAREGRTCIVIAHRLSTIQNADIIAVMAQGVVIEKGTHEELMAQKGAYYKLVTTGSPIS

[4] = Ratio of drug concentration at steady state in human at 20 to 60 mg, po QD after 24 hrs to IC50 for human MRP4 overexpressed in Sf9 insect cells; assay type: ADME, organism-based; details: in vivo
[5] = Drug concentration at steady state in human at 20 to 60 mg, po QD after 24 hrs; assay type: ADME, organism-based; details: in vivo, read-out: Css
[6] = AUC in human at 20 to 60 mg, po QD after 24 hrs; assay type: ADME, organism-based; details: in vivo
[7] = biological target: ATP-binding cassette sub-family C member 3 (Homo sapiens, UniProt O15438); test: Inhibition of human MRP3 overexpressed in Sf9 insect cell membrane vesicles assessed as uptake of [3H]-estradiol-17beta-D-glucuronide in presence of ATP and GSH measured after 10 mins by membrane vesicle transport assay; assay type: ADME, cell-based
Sequence of ATP-binding cassette sub-family C member 3 (O15438 whole entry): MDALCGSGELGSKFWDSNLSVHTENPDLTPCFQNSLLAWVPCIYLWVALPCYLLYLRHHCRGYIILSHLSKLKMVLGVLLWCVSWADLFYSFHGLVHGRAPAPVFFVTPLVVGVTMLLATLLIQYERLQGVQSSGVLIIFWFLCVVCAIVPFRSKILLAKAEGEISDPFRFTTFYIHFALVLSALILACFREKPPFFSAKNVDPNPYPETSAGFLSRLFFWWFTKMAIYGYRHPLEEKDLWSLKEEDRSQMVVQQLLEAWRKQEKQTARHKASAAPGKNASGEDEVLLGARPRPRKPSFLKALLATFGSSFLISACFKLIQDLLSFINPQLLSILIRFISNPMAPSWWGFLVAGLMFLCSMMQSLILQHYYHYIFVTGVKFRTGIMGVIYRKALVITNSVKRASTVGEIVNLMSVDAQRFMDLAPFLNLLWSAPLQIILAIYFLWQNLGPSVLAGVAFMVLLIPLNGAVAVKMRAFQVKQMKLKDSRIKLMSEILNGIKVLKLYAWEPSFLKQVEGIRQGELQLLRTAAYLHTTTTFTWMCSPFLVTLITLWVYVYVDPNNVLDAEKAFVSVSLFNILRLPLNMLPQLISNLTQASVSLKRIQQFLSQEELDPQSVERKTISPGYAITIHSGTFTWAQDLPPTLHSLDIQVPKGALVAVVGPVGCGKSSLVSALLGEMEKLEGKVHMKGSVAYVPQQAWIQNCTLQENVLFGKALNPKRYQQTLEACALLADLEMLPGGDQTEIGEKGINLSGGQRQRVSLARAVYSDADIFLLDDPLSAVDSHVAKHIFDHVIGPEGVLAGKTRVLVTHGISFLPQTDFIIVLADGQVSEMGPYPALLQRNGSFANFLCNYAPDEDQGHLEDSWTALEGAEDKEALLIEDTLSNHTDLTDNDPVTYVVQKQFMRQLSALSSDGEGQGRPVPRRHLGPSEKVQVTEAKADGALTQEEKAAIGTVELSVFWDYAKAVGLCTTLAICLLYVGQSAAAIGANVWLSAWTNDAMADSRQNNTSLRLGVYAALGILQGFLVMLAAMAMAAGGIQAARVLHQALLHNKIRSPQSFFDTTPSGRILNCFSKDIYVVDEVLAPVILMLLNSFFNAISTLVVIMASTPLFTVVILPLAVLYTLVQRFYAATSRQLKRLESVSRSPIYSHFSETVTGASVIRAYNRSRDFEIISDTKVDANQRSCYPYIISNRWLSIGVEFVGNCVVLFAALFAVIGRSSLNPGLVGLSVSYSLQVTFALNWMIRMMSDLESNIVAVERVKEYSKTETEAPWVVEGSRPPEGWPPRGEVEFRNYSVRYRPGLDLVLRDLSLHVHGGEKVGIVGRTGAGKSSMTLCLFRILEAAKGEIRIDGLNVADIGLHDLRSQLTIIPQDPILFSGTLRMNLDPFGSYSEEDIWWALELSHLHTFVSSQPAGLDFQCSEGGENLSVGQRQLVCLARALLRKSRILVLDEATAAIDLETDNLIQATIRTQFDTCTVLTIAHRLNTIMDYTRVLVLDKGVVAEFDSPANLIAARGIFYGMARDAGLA

[8] = biological target: ATP-binding cassette sub-family C member 2 (Homo sapiens, UniProt Q92887); test: Inhibition of human MRP2 overexpressed in Sf9 cell membrane vesicles assessed as uptake of [3H]-estradiol-17beta-D-glucuronide in presence of ATP and GSH measured after 20 mins by membrane vesicle transport assay
Sequence of ATP-binding cassette sub-family C member 2 (Q92887 whole entry): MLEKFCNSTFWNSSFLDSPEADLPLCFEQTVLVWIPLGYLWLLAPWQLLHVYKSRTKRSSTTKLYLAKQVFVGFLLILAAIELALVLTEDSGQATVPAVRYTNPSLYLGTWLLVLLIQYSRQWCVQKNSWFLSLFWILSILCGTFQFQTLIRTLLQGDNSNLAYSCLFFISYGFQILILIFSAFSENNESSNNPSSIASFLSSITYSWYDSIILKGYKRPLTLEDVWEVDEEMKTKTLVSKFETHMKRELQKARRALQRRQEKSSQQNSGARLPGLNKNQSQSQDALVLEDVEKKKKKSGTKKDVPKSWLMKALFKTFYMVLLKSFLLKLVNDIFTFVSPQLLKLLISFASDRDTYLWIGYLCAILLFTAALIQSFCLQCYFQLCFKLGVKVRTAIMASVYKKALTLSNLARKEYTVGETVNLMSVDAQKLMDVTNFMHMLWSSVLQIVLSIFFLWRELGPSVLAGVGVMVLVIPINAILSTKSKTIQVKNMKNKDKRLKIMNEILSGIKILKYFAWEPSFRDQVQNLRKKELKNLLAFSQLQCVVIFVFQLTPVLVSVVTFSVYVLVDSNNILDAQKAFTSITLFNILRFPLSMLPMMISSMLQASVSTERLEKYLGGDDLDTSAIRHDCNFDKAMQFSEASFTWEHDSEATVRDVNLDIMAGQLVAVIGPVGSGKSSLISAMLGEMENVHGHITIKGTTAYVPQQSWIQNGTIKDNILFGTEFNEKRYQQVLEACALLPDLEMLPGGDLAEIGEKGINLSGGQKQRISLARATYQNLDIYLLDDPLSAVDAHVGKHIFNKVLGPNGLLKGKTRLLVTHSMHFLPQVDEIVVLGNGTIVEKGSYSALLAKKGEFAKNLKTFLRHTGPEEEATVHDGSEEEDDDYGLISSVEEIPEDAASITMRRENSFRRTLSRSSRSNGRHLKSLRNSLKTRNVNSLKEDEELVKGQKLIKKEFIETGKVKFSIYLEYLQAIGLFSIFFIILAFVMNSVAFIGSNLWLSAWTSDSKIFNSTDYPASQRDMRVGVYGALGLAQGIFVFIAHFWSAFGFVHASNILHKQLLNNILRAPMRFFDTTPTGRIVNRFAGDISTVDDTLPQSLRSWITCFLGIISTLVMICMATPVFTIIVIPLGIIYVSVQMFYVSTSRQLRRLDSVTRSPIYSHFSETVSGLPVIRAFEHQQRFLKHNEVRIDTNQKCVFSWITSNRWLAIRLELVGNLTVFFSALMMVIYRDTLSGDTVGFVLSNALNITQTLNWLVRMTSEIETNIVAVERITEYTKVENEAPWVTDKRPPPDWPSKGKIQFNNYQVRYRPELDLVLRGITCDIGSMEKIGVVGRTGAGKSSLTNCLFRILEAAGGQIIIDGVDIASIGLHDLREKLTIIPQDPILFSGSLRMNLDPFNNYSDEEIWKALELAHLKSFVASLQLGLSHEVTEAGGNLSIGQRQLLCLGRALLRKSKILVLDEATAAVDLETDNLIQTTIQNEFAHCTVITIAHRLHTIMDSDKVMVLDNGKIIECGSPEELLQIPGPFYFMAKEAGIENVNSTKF

[9] = AUC in human at 1.5 ug administered as 1 drop intraocularly QD after 24 hrs; assay type: ADME; set-up: dose 1.5 ug, time < 24 hr, route intraocular; details: in vivo, topical or ocular
[10] = Ratio of drug concentration at steady state in human at 1.5 ug administered as 1 drop intraocularly QD after 24 hrs to IC50 for human BSEP overexpressed in Sf9 insect cells; assay type: ADME; details: in vivo, topical_or_ocular
[11] = Drug concentration at steady state in human at 1.5 ug administered as 1 drop intraocularly QD after 24 hrs; assay type: ADME; details: in vivo, topical or ocular, read-out: Css
[12] = Drug concentration at steady state in human at 60 to 250 mg, po QD after 12 hrs; assay type: ADME, organism-based; details: in vivo, read-out: Css
[13] = AUC in human at 60 to 250 mg, po QD after 12 hrs; assay type: ADME, organism-based; details: in vivo
[14] = Ratio of drug concentration at steady state in human at 60 to 250 mg, po QD after 12 hrs to IC50 for human BSEP overexpressed in Sf9 insect cells; assay type: ADME, organism-based; details: in vivo
[15] = clinical; details: human, in vivo, po
Description: Drug concentration at steady state in human at 10 to 80 mg, po QD after 24 hrs

[16] = AUC in human at 10 to 80 mg, po QD after 24 hrs; assay type: ADME, organism-based; details: in vivo
[17] = AUC in human at 5 to 80 mg, po QD after 24 hrs; assay type: ADME, organism-based; details: in vivo
[18] = Drug concentration at steady state in human at 5 to 80 mg, po QD after 24 hrs; assay type: ADME, organism-based; details: in vivo, read-out: Css
[19] = AUC in human at 0.35 mg, po QD after 24 hrs; assay type: ADME, organism-based; set-up: time < 24 hr, dose 0.35 mg, route oral; details: in vivo
[20] = Ratio of drug concentration at steady state in human at 0.35 mg, po QD after 24 hrs to IC50 for human BSEP overexpressed in Sf9 insect cells; assay type: ADME, organism-based; details: in vivo
[21] = Drug concentration at steady state in human at 0.35 mg, po QD after 24 hrs; assay type: ADME, organism-based; details: in vivo, read-out: Css
[22] = Ratio of drug concentration at steady state in human at 2.5 to 20 mg, po QD after 24 hrs to IC50 for human BSEP overexpressed in Sf9 insect cells; assay type: ADME, organism-based; details: in vivo
[23] = AUC in human at 2.5 to 20 mg, po QD after 24 hrs; assay type: ADME, organism-based; details: in vivo
[24] = Drug concentration at steady state in human at 2.5 to 20 mg, po QD after 24 hrs; assay type: ADME, organism-based; details: in vivo, read-out: Css
[25] = Drug concentration at steady state in human at 6 to 12 mg, po BID after 12 hrs; assay type: ADME, organism-based; details: in vivo, read-out: Css
[26] = AUC in human at 6 to 12 mg, po BID after 12 hrs; assay type: ADME, organism-based; details: in vivo
[27] = Ratio of drug concentration at steady state in human at 6 to 12 mg, po BID after 12 hrs to IC50 for human BSEP overexpressed in Sf9 insect cells; assay type: ADME, organism-based; details: in vivo
[28] = Drug concentration at steady state in human at 0.5 mg, po QD after 24 hrs; assay type: ADME, organism-based; details: in vivo, read-out: Css
[29] = AUC in human at 0.5 mg, po QD after 24 hrs; assay type: ADME, organism-based; set-up: time < 24 hr, dose 0.5 mg, route oral; details: in vivo
[30] = Ratio of drug concentration at steady state in human at 0.5 mg, po QD after 24 hrs to IC50 for human BSEP overexpressed in Sf9 insect cells; assay type: ADME, organism-based; details: in vivo
[31] = system: Homo sapiens; test: Drug concentration at steady state in human at 0.01 to 0.04 mg/kg, po after 24 hrs; assay type: ADME, organism-based; details: in vivo
[32] = clinical; details: human, in vivo, po; remark: listed apart in the source
[33] = Ratio of drug concentration at steady state at 1% applied topically BID after 12 hrs to IC50 for human BSEP overexpressed in Sf9 insect cells; assay type: ADME; details: topical_or_ocular
[34] = AUC in human at 1% applied topically BID after 12 hrs; assay type: ADME; set-up: time < 12 hr; details: topical or ocular
[35] = Drug concentration in human at steady state at 1% applied topically BID after 12 hrs; assay type: ADME; details: topical or ocular, read-out: Css

SMILES: COC(=O)C1=C(C)NC(C)=C(C(=O)OCC(C)C)C1c1ccccc1[N+](=O)[O-] (stereo not given) [NISOLDIPINE]
- IC50 [1]: 16.5 µM
- Ratio [2]: 0.00017
- IC50 [3]: 33 µM
- Ratio [4]: 0
- concentration at 24 h [5]: 6 nM
- AUC at 24 h [6]: 0.134 µM·h
- IC50 [7]: > 133 µM
- IC50 [8]: > 133 µM

SMILES: CC(C)OC(=O)CCC/C=C\C[C@@H]1[C@@H](CC[C@@H](O)CCc2ccccc2)[C@H](O)C[C@@H]1O [LATANOPROST]
- AUC at 24 h [9]: 0.047 µM·h
- IC50 [1]: > 133 µM
- IC50 [3]: 12.9 µM
- Ratio [10]: 0.00015
- concentration at 24 h [11]: 2 nM
- IC50 [7]: > 133 µM
- IC50 [8]: > 133 µM

SMILES: CN1CCN(C2=Nc3ccccc3Oc3ccc(Cl)cc32)CC1.O=C(O)CCC(=O)O [LOXAPINE SUCCINATE]
- IC50 [1]: > 133 µM
- concentration at 12 h [12]: 31 nM
- AUC at 12 h [13]: 0.369 µM·h
- IC50 [3]: 77 µM
- Ratio [14]: 0.0004
- IC50 [7]: > 133 µM
- IC50 [8]: > 133 µM

SMILES: CC[C@H](C)C(=O)O[C@H]1C[C@@H](C)C=C2C=C[C@H](C)[C@H](CC[C@@H]3C[C@@H](O)CC(=O)O3)[C@H]21 [LOVASTATIN]
- IC50 [1]: > 133 µM
- IC50 [3]: 19.3 µM
- concentration at 24 h [15]: 10 nM
- AUC at 24 h [16]: 0.238 µM·h
- IC50 [7]: > 133 µM
- IC50 [8]: > 133 µM

SMILES: CCC(C)(C)C(=O)O[C@H]1C[C@@H](C)C=C2C=C[C@H](C)[C@H](CC[C@@H]3C[C@@H](O)CC(=O)O3)[C@H]21 [SIMVASTATIN]
- IC50 [1]: > 133 µM
- AUC at 24 h [17]: 0.212 µM·h
- concentration at 24 h [18]: 9 nM
- IC50 [7]: > 133 µM
- IC50 [8]: > 133 µM

SMILES: C#C[C@@]1(OC(C)=O)CC[C@H]2[C@@H]3CCC4=CC(=O)CC[C@@H]4[C@H]3CC[C@@]21C
- IC50 [1]: > 133 µM
- IC50 [3]: 36 µM
- AUC at 24 h [19]: 0.494 µM·h
- Ratio [20]: 0.00057
- concentration at 24 h [21]: 21 nM
- IC50 [7]: > 133 µM
- IC50 [8]: > 133 µM

SMILES: COC(=O)C1=C(C)NC(C)=C(C(=O)OC(C)C)C1c1cccc2nonc12 (stereo not given) [ISRADIPINE]
- IC50 [1]: > 133 µM
- IC50 [3]: 28 µM
- Ratio [22]: 0.0003
- AUC at 24 h [23]: 0.197 µM·h
- concentration at 24 h [24]: 8 nM
- IC50 [7]: > 133 µM
- IC50 [8]: > 133 µM

SMILES: COc1cc(C(C)=O)ccc1OCCCN1CCC(c2noc3cc(F)ccc23)CC1 [ILOPERIDONE]
- IC50 [1]: > 133 µM
- IC50 [3]: 23.4 µM
- concentration at 12 h [25]: 9 nM
- AUC at 12 h [26]: 0.106 µM·h
- IC50 [7]: > 133 µM
- IC50 [8]: > 133 µM
- Ratio [27]: 0.00038

SMILES: C[C@]12C=CC(=O)N[C@@H]1CC[C@@H]1[C@@H]2CC[C@]2(C)[C@@H](C(=O)Nc3cc(C(F)(F)F)ccc3C(F)(F)F)CC[C@@H]12 [DUTASTERIDE]
- IC50 [1]: > 133 µM
- IC50 [3]: 29.8 µM
- concentration at 24 h [28]: 3 nM
- AUC at 24 h [29]: 0.078 µM·h
- IC50 [7]: > 133 µM
- IC50 [8]: > 133 µM
- Ratio [30]: 0.00011

SMILES: Cc1ncc2n1-c1ccc(Cl)cc1C(c1ccccc1F)=NC2 [MIDAZOLAM]
- Css [31]: 15 nM
- AUC at 24 h [32]: 0.369 µM·h

SMILES: CC[C@@H]1/C=C(\C)C[C@H](C)C[C@H](OC)[C@H]2O[C@@](O)(C(=O)C(=O)N3CCCC[C@H]3C(=O)O[C@H](/C(C)=C/[C@@H]3CC[C@H](Cl)[C@H](OC)C3)[C@H](C)[C@@H](O)CC1=O)[C@H](C)C[C@@H]2OC [PIMECROLIMUS]
- IC50 [1]: > 133 µM
- IC50 [3]: 10 µM
- Ratio [33]: 0.00019
- AUC at 12 h [34]: 0.023 µM·h
- concentration at 12 h [35]: 2 nM
- IC50 [7]: > 133 µM
- IC50 [8]: > 133 µM

Reference: ChEMBL document CHEMBL4028801, “A multifactorial approach to hepatobiliary transporter assessment enables improved therapeutic compound development” (Toxicol Sci, 2013)
